Columns and labels:
[1] = Appearance of formulation made with the drug form; format: physicochemical
Procedure: The polyethylene glycol was mixed with about 25% of the required purified water and the Carbopol® dispersed in this mixture. About 56% of the required purified water was added with rapid stirring until the CARBOPOL® was well dispersed and appeared hydrated. The sodium hydroxide was dissolved in a minimum of purified water and added to the bulk with stirring. The S(+)-ibuprofen sodium salt dihydrate was dissolved in a mixture of phenoxyethanol, propylene glycol and remaining purified water and added to the Carbopol® gel with rapid stirring.
The LYCASIN® and glycerin were mixed together. The domiphen bromide was dissolved in the alcohol. The sodium salt was added to this alcoholic solution along with sufficient purified water to produce a solution. The aqueous alcoholic solution was added to the LYCASIN®/glycerin mixture and mixed well. Optional flavourings may be added to the above formulation.
The LYCASIN® and glycerin were mixed together and diluted with a suitable volume of water. The sodium salt was dispersed and dissolved in the mixture. The domiphen bromide was dissolved in the alcohol and this solution added slowly with stirring to the bulk. The formulation was made up to volume and mixed well. Optional flavourings may be added to the formulation.
The powders were sieved through a 30 mesh sieve and blended together, then filled into sachets containing 2000 mg of powder. Optional flavourings may be added to the above mixture.

[2] = in humans; cited from earlier work
[3] = topical gel formulation of Example 20 (Carbopol gel base)
[4] = higher strength oral liquid formulation of Example 25
[5] = low strength oral liquid formulation of Example 23

Row | SMILES | Appearance of product [1, 3] | Appearance of product [1, 4] | Appearance of product [1, 5] | Appearance on addition to hot water ([1]; cold relief powder formulation base of Example 27, hot water 70° C. or greater) | Conversion into S(+)-ibuprofen [2]
1 | CC(C)Cc1ccc(C(C)C(=O)[O-])cc1.[Na+] (racemic) [sodium salt of ibuprofen racemate, sodium 2-(4-isobutylphenyl)propionate] | a totally unsatisfactory product that separated into a clear upper liquid and a cloudy viscous lower layer |  |  |  | 
2 | CC(C)Cc1ccc([C@H](C)C(=O)[O-])cc1.O.O.[Na+] [S(−)sodium 2-(4-isobutylphenyl)propionate dihydrate] |  | a clear bright liquid | a bright clear product |  | 
3 | CC(C)Cc1ccc([C@H](C)C(=O)O)cc1 [S(+)-ibuprofen free acid, S(+)-2-(4-isobutylphenyl)propionic acid] | an opaque product of a high viscosity not suitable for use as a topical rub | an unsuitable product with the drug floating on the surface | a poor product with a significant proportion of the S(+)-ibuprofen floating on the surface of the product | an unpalatable oily layer on the surface of the hot water | 
4 | CC(C)Cc1ccc([C@@H](C)C(=O)O)cc1 [R(−)-ibuprofen, R(−)-2-(4-isobutylphenyl)propionic acid] |  |  |  |  | partially converted into S(+)-ibuprofen

— US6525214B1, “Therapeutic agent” (priority 1991, dated 2003)
